Measurements taken from ChEMBL document CHEMBL3832080, “DailyMed|setid=f3c5895f-f54b-43d4-9b38-7bfbdf8335b7 | CEFOTAXIME - cefotaxime injection, powder, for solution|WOCKHARDT USA LLC”.

Key:
[1] = (§1) Pharmacokinetics parameters for Cefotaxine evaluated after single IV or intramuscular (IM) administration of Cefotaxine to normal volunteers.; type: ADME, organism-based; parameters: dose 1 g, dose 500 mg, dose 2 g, route iv, route im; conditions: human, in vivo, regimen Single dose
Homo sapiens = experiment: as §1; type: ADME, organism-based; parameters: dose 1 g, dose 500 mg, dose 2 g, route iv, route im; conditions: in vivo, im, dose 500 mg, dosed compound id 59, dosed compound name CEFOTAXIME, regimen Single dose, tissue Serum
[2] = dose 1 g, dosed compound id 59, dosed compound name CEFOTAXIME, route im, tissue Serum

## CO/N=C(\C(=O)N[C@@H]1C(=O)N2C(C(=O)[O-])=C(COC(C)=O)CS[C@H]12)c1csc(N)n1.[Na+] [CEFOTAXIME SODIUM]
[1]; dose 50 mg/kg, dosed compound id 59, dosed compound name CEFOTAXIME, route iv, study dosing duration 10 to 15 minutes, tissue Urine
  half-life: 4.6 h
[1]; [2]
  Tmax: 0.5 h
  half-life: 1 h
[1]; dosed compound id 590, dosed compound name 14C-CEFOTAXIME, route iv, tissue Urine, read-out: Excretion
  dose excreted: 20 to 36%
Homo sapiens
  Tmax: 0.5 h
  t1/2: 1 h
